The values that follow come from the supplement of paper PMC7840683.

The test system of the test is HepaRG. Briefly: LDH release cytotoxicity, % of total lysis control; higher = more cytotoxic. The following applies: 48 h. The method in brief:
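Eight-point half-log series of test chemicals, the highest at 100 µM, were given in duplicate for 48 h to single-lot HepaRG cells on collagen I-coated 96-well plates in serum-free induction medium with 0.5% DMSO. A Tecan Safire read resorufin fluorescence from CytoTox-ONE as a measure of LDH in 50 µL spent medium, with 0.1% Triton X in total lysis wells. Percent cytotoxicity was normalized to on-plate vehicle and total lysis controls and averaged over the duplicates.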

Structures can show the parent of a compound that is named as a salt. ± gives the standard deviation of the averaged measurements.

Consider `C=CCC1=C(C)C(OC(=O)C2C(C=C(C)C)C2(C)C)CC1=O` (centres undefined) [Allethrin], for which the LDH release cytotoxicity runs as follows: (0.03162 µM) 0.254 ± 1.2%; (0.1 µM) -0.919 ± 0.37%; (0.3162278 µM) -1.19 ± 0.46%; (1 µM) -0.231 ± 0.68%; (3.16228 µM) -1.87 ± 0.067%; (10 µM) -1.69 ± 0.11%. Moreover, the LDH release cytotoxicity (31.6228 µM) was -0.447 ± 0.21% and the LDH release cytotoxicity (100 µM) was -0.904 ± 0.67%.
Regarding `CC(Oc1cccc(Cl)c1)C(=O)O` (centres undefined) [Cloprop], the LDH release cytotoxicity is, setting by setting: (0.03162 µM) -1.06 ± 1.4%; (0.1 µM) -0.561 ± 0.06%; (0.3162278 µM) -0.691 ± 0.98%; (1 µM) -0.434 ± 0.14%; (3.16228 µM) -0.762 ± 0.08%; (10 µM) -0.167 ± 0.17%. Further, the LDH release cytotoxicity was -0.608 ± 0.19% (31.6228 µM) and 0.547 ± 0.3% (100 µM).
In the case of `c1cc2c3c(cccc3c1)CC2` [Acenaphthene], the LDH release cytotoxicity (0.03162 µM) is -0.325 ± 0.66%; the LDH release cytotoxicity (0.1 µM) was -0.376 ± 0.039%; the LDH release cytotoxicity (0.3162278 µM) was found to be 0.475 ± 0.27%; the LDH release cytotoxicity (1 µM) is -0.576 ± 0.93%; the LDH release cytotoxicity (3.16228 µM) was -0.0334 ± 0.48%; the LDH release cytotoxicity (10 µM) amounted to 0.635 ± 0.44%. In addition, the LDH release cytotoxicity by setting is: (31.6228 µM) 0.885 ± 1.1%; (100 µM) 1.86 ± 0.3%.
As to `CNC(=O)C1OC(n2cnc3c(NCc4cc(Cl)ccc4OCc4cc(C)no4)ncnc32)C(O)C1N` (centres undefined), the LDH release cytotoxicity runs as follows: (0.03162 µM) -1.47 ± 0.23%; (0.1 µM) -1.47 ± 1.1%; (0.3162278 µM) -1.92 ± 0.35%; (1 µM) -1.97 ± 0.043%; (3.16228 µM) -1.57 ± 0.1%; (10 µM) -1.54 ± 0.46%. Also, the LDH release cytotoxicity is, setting by setting: (31.6228 µM) -0.977 ± 0.33%; (100 µM) 0.0796 ± 0.85%.
With `Cc1ccc([N+](=O)[O-])cc1N` [5-Nitro-o-toluidine], the LDH release cytotoxicity is, setting by setting: (0.03162 µM) -0.782 ± 1%; (0.1 µM) -1.02 ± 0.28%; (0.3162278 µM) -1.84 ± 0.91%; (1 µM) -1.647 ± 0.013%; (3.16228 µM) -1.55 ± 0.25%; (10 µM) -1.24 ± 0.39%. Besides, the LDH release cytotoxicity is, setting by setting: (31.6228 µM) -0.792 ± 0.78%; (100 µM) -0.343 ± 0.81%.
As to `CCOP(=S)(OCC)SCSP(=S)(OCC)OCC` [Ethion], the LDH release cytotoxicity by setting is: (0.03162 µM) -0.671 ± 0.69%; (0.1 µM) -1.31 ± 0.3%; (0.3162278 µM) -1.54 ± 0.12%; (1 µM) -1.6 ± 0.47%; (3.16228 µM) -1.07 ± 0.078%; (10 µM) -1.06 ± 0.23%. Also, the LDH release cytotoxicity by setting is: (31.6228 µM) -2.53 ± 0.069%; (100 µM) -0.532 ± 0.36%.
Take `Nc1ccc(-c2ccc(N)cc2)cc1` [Benzidine]: the LDH release cytotoxicity is -0.869 ± 4.3% (0.03162 µM); -2.2 ± 0.13% (0.1 µM); -3.09 ± 0.054% (0.3162278 µM); -2.37 ± 0.27% (1 µM); -2.3 ± 0.28% (3.16228 µM); 0.338 ± 4% (10 µM). Further, the LDH release cytotoxicity is, setting by setting: (31.6228 µM) -0.733 ± 0.045%; (100 µM) 0.306 ± 0.029%.
In the case of `Nc1ccn(C2OC(CO)C(O)C2O)c(=O)n1` (centres undefined) [Cytarabine hydrochloride], the LDH release cytotoxicity (0.03162 µM) is -0.941 ± 0.69%; the LDH release cytotoxicity (0.1 µM) is -1.96 ± 0.65%; the LDH release cytotoxicity (0.3162278 µM) was -0.891 ± 0.29%; the LDH release cytotoxicity (1 µM) is -1.56 ± 0.86%; the LDH release cytotoxicity (3.16228 µM) was -0.827 ± 0.49%; the LDH release cytotoxicity (10 µM) is 0.301 ± 1.5%. In addition, the LDH release cytotoxicity runs as follows: (31.6228 µM) 1.76 ± 1.2%; (100 µM) 4.47 ± 2.3%.
Regarding `C=CC(N)=O` [Acrylamide], the LDH release cytotoxicity reads like this: (0.03162 µM) -0.83 ± 0.15%; (0.1 µM) -1.21 ± 0.58%; (0.3162278 µM) -1.5 ± 0.3%; (1 µM) -1.596 ± 0.0065%; (3.16228 µM) -1.78 ± 0.096%; (10 µM) -0.843 ± 0.56%. Also, the LDH release cytotoxicity is -1.75 ± 0.16% (31.6228 µM) and -0.493 ± 0.11% (100 µM).
For `c1ccc2c(c1)-c1cccc3c1c-2cc1ccccc13` [Benzo(b)fluoranthene], the LDH release cytotoxicity is, setting by setting: (0.03162 µM) -1.73 ± 0.79%; (0.1 µM) -2.8 ± 0.051%; (0.3162278 µM) -1.72 ± 0.55%; (1 µM) -2.85 ± 1%; (3.16228 µM) -1.02 ± 0.32%; (10 µM) 1.06 ± 1.1%. For the same compound, the LDH release cytotoxicity (31.6228 µM) is 5.33 ± 2.5% and the LDH release cytotoxicity (100 µM) came to 5.52 ± 2.2%.
Consider `Nc1c(Cl)cc([N+](=O)[O-])cc1Cl` [Dicloran], for which the LDH release cytotoxicity (0.03162 µM) was -0.748 ± 0.034%; the LDH release cytotoxicity (0.1 µM) is -1.57 ± 0.49%; the LDH release cytotoxicity (0.3162278 µM) was -1.57 ± 0.62%; the LDH release cytotoxicity (1 µM) is -2.63 ± 0.73%; the LDH release cytotoxicity (3.16228 µM) is -1.28 ± 0.36%; the LDH release cytotoxicity (10 µM) is -1.61 ± 0.56%. In addition, the LDH release cytotoxicity was -0.997 ± 0.16% (31.6228 µM) and 0.0971 ± 0.81% (100 µM).
For `O=C(Nc1ccc([N+](=O)[O-])cc1Cl)c1cc(Cl)ccc1O` [5-Chloro-N-(2-chloro-4-nitrophenyl)-2-hydroxybenzamide], the LDH release cytotoxicity reads like this: (0.03162 µM) 1.65 ± 0.17%; (0.1 µM) -0.562 ± 0.35%; (0.3162278 µM) -0.79 ± 0.51%; (1 µM) -0.00174 ± 0.41%; (3.16228 µM) 0.224 ± 0.77%; (10 µM) 1.07 ± 0.19%. The LDH release cytotoxicity is, setting by setting: (31.6228 µM) 1.7 ± 0.41%; (100 µM) 4.52 ± 0.71%.
Regarding `CCCCOC(=O)C(C)Oc1ccc(Oc2ccc(C#N)cc2F)cc1` (centres undefined) [Cyhalofop-butyl], the LDH release cytotoxicity is -1.16 ± 0.16% (0.0314647 µM); -1.07 ± 0.88% (0.0995 µM); -0.775 ± 0.25% (0.3146466 µM); -1.29 ± 0.31% (0.995 µM); -0.485 ± 0.35% (3.14647 µM); 0.552 ± 1.1% (9.95 µM). Further, the LDH release cytotoxicity is -0.564 ± 0.059% (31.4647 µM) and 0.894 ± 1% (99.5 µM).
Take `COS(=O)(=O)OC` [Dimethyl sulfate]: the LDH release cytotoxicity by setting is: (0.03162 µM) -0.536 ± 0.23%; (0.1 µM) -0.931 ± 0.64%; (0.3162278 µM) -1.52 ± 1%; (1 µM) -1.6 ± 0.65%; (3.16228 µM) -1.18 ± 0.15%; (10 µM) -0.291 ± 0.98%. In addition, the LDH release cytotoxicity runs as follows: (31.6228 µM) -1.17 ± 1.2%; (100 µM) 3.53 ± 0.11%.
Take `COC(=O)C(C)Oc1ccc(Oc2ccc(Cl)cc2Cl)cc1` (racemic) [Methyl (RS)-2-[4-(2,4-dichlorophenoxy)phenoxy]propionate]: the LDH release cytotoxicity is -0.971 ± 1.5% (0.03162 µM); -1.59 ± 0.12% (0.1 µM); -1.59 ± 1.4% (0.3162278 µM); -2.24 ± 0.54% (1 µM); -1.38 ± 0.41% (3.16228 µM); -1.28 ± 0.4% (10 µM). In addition, the LDH release cytotoxicity runs as follows: (31.6228 µM) -1.8 ± 0.099%; (100 µM) -0.104 ± 0.18%.
Take `O=C1NS(=O)(=O)c2ccccc21` [Sodium saccharin hydrate]: the LDH release cytotoxicity is, setting by setting: (0.03162 µM) -0.893 ± 0.069%; (0.1 µM) -1.1 ± 0.76%; (0.3162278 µM) -0.541 ± 0.034%; (1 µM) -1.22 ± 0.43%; (3.16228 µM) -1.77 ± 0.0062%; (10 µM) -0.645 ± 0.66%. In addition, the LDH release cytotoxicity is -0.345 ± 0.15% (31.6228 µM) and 1.33 ± 0.048% (100 µM).
For the compound `CCCCCCCCC(=O)O` [Nonanoic acid], the LDH release cytotoxicity by setting is: (0.03162 µM) -1.22 ± 1.1%; (0.1 µM) -1.24 ± 0.71%; (0.3162278 µM) -0.597 ± 0.11%; (1 µM) -1.56 ± 0.047%; (3.16228 µM) -2.05 ± 0.21%; (10 µM) -1.39 ± 0.62%. Further, the LDH release cytotoxicity by setting is: (31.6228 µM) -1.11 ± 0.22%; (100 µM) 3.09 ± 0.27%.
Turning to `CC(C)CCCCCCOC(=O)c1ccc(C(=O)OCCCCCCC(C)C)c(C(=O)OCCCCCCC(C)C)c1` [Triisononyl trimellitate], the LDH release cytotoxicity (0.031623 µM) is -0.391 ± 0.73%; the LDH release cytotoxicity (0.1 µM) is -0.474 ± 2.8%; the LDH release cytotoxicity (0.316228 µM) is -1.59 ± 0.86%; the LDH release cytotoxicity (1 µM) is -2.21 ± 1.3%; the LDH release cytotoxicity (3.16228 µM) was -2.67 ± 0.91%; the LDH release cytotoxicity (10 µM) is -1.83 ± 1.2%. In addition, the LDH release cytotoxicity runs as follows: (31.6228 µM) -0.993 ± 1.1%; (100 µM) 0.476 ± 0.49%.
